Results taken from PubChem BioAssay AID256 (DTP/NCI, 2004).
“And” between values parts separate entries of the source, which are not always exact repeats. Equal entries are not always repeated. Toxic doses and inconclusive results are not listed.

Tested on: CD2F1 mice, L1210 leukemia ip, survival T/C
Test: NCI In Vivo Anticancer Drug Screen. Data for tumor model L1210 Leukemia (intraperitoneal) in CD2F1 (CDF1) mice
Conditions: higher = longer survival
In short: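 Each value reflects a quotient of treated over vehicle control outcomes in mice with a transplanted tumor.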

[1] = endpoint: mean survival time, dose: 25.0 mg/kg/injection, schedule: Q04DX002 (ip), vehicle: saline with Tween-80
[2] = endpoint: mean survival time, dose: 100.0 mg/kg/injection, schedule: Q01DX001 (ip), vehicle: saline with Tween-80
[3] = endpoint: mean survival time, dose: 100.0 mg/kg/injection, schedule: Q01DX009 (ip), vehicle: saline with Tween-80
[4] = endpoint: mean survival time, dose: 100.0 mg/kg/injection, schedule: Q04DX003 (ip), vehicle: saline with Tween-80
[5] = endpoint: mean survival time, dose: 200.0 mg/kg/injection, schedule: Q01DX009 (ip), vehicle: saline with Tween-80
[6] = endpoint: mean survival time, dose: 200.0 mg/kg/injection, schedule: Q04DX003 (ip), vehicle: saline with Tween-80
[7] = endpoint: mean survival time, dose: 400.0 mg/kg/injection, schedule: Q01DX009 (ip), vehicle: saline with Tween-80
[8] = endpoint: mean survival time, dose: 400.0 mg/kg/injection, schedule: Q04DX003 (ip), vehicle: saline with Tween-80
[9] = endpoint: mean survival time, dose: 100.0 mg/kg/injection, schedule: Q04DX002 (ip), vehicle: saline with Tween-80
[10] = endpoint: mean survival time, dose: 200.0 mg/kg/injection, schedule: Q04DX002 (ip), vehicle: saline with Tween-80
[11] = endpoint: mean survival time, dose: 50.0 mg/kg/injection, schedule: Q01DX009 (ip), vehicle: saline with Tween-80
[12] = endpoint: mean survival time, dose: 100.0 mg/kg/injection, schedule: Q04DX003 (ip), vehicle: saline
[13] = endpoint: mean survival time, dose: 200.0 mg/kg/injection, schedule: Q04DX003 (ip), vehicle: saline
[14] = endpoint: mean survival time, dose: 400.0 mg/kg/injection, schedule: Q04DX003 (ip), vehicle: saline

CCCC(C(CC)CN(C)C)N(C)C (configuration not stated) was tested, and the T/C (endpoint: mean survival time, dose: 3.12 mg/kg/injection, schedule: Q04DX002 (ip), vehicle: saline with Tween-80) was 113 % of control, the T/C (endpoint: mean survival time, dose: 6.25 mg/kg/injection, schedule: Q04DX002 (ip), vehicle: saline with Tween-80) was 106 % of control and the T/C (endpoint: mean survival time, dose: 12.5 mg/kg/injection, schedule: Q04DX002 (ip), vehicle: saline with Tween-80) was 107 % of control. For the same molecule, the T/C (endpoint: mean survival time, dose: 25.0 mg/kg/injection, schedule: Q01DX001 (ip), vehicle: saline with Tween-80) was 120 % of control, the T/C [1] was 103 % of control and the T/C (endpoint: mean survival time, dose: 50.0 mg/kg/injection, schedule: Q01DX001 (ip), vehicle: saline with Tween-80) was 100 % of control. For the same molecule, the T/C [2] was 100 % of control.
For O=C(Nc1ccccc1)O/N=C(/c1ccccc1)c1ccccn1, the T/C (endpoint: mean survival time, dose: 100.0 mg/kg/injection, schedule: Q01DX001 (ip), vehicle: other) was 104 % of control, the T/C (endpoint: mean survival time, dose: 200.0 mg/kg/injection, schedule: Q01DX001 (ip), vehicle: other) was 98 % of control and the T/C (endpoint: mean survival time, dose: 400.0 mg/kg/injection, schedule: Q01DX001 (ip), vehicle: other) was 101 % of control.
With Cc1cccc(Cl)c1C#N the T/C [2] was 104 % of control, the T/C [3] was 94 % of control and the T/C [4] was 107 % of control. The T/C (endpoint: mean survival time, dose: 200.0 mg/kg/injection, schedule: Q01DX001 (ip), vehicle: saline with Tween-80) was 106 % of control, the T/C [5] was 100 % of control and the T/C [6] was 101 % of control. The T/C (endpoint: mean survival time, dose: 400.0 mg/kg/injection, schedule: Q01DX001 (ip), vehicle: saline with Tween-80) was 106 % of control, the T/C [7] was 90 % of control and the T/C [8] was 100 % of control.
In the case of O=c1[nH]c2ccccc2nc1Cl, the T/C [1] was 94 % of control, the T/C (endpoint: mean survival time, dose: 50.0 mg/kg/injection, schedule: Q04DX002 (ip), vehicle: saline with Tween-80) was 94 % of control and the T/C [9] was 94 % of control. The T/C [10] was 90 % of control and the T/C (endpoint: mean survival time, dose: 400.0 mg/kg/injection, schedule: Q04DX002 (ip), vehicle: saline with Tween-80) was 90 % of control.
With CCCCN1C(=O)C(=O)N(c2ccc(NC(C)=O)cc2)C1=O the T/C [11] was 93 % of control, the T/C [3] was 89 % of control and the T/C [5] was 89 % of control.
O=C1c2ccccc2C(=O)c2c(NCCN3CCNCC3)ccc(NCCN3CCNCC3)c21 was tested, and the T/C (endpoint: mean survival time, dose: 4.0 mg/kg/injection, schedule: Q01DX009 (ip), vehicle: acid diluted with saline) was 100 % of control, the T/C (endpoint: mean survival time, dose: 8.0 mg/kg/injection, schedule: Q01DX009 (ip), vehicle: acid diluted with saline) was 102 % of control and the T/C (endpoint: mean survival time, dose: 16.0 mg/kg/injection, schedule: Q01DX009 (ip), vehicle: acid diluted with saline) was 106 % of control. The T/C (endpoint: mean survival time, dose: 32.0 mg/kg/injection, schedule: Q01DX009 (ip), vehicle: acid diluted with saline) was 104 % of control.
With COc1cc(OC)c(NC(=O)Nc2ccc(NC(C)=O)cc2)cc1Cl the T/C (endpoint: mean survival time, dose: 12.5 mg/kg/injection, schedule: Q01DX009 (ip), vehicle: saline with Tween-80) was 103 % of control, the T/C (endpoint: mean survival time, dose: 25.0 mg/kg/injection, schedule: Q01DX009 (ip), vehicle: saline with Tween-80) was 103 % of control and the T/C [11] was 103 % of control.
For CS/C([S-])=N/N=C\c1ccccn1.CS/C([S-])=N/N=C\c1ccccn1.[Fe+2], the T/C [4] was 103 % of control, the T/C [6] was 91 % of control and the T/C [8] was 91 % of control.
For O=C(O)/C=C/C(=O)Nc1ccc(I)cc1, the T/C [3] was 95 % of control, the T/C [4] was 104 % of control and the T/C [5] was 111 % of control. The T/C [6] was 98 % of control and the T/C [8] was 97 % of control.
With O=C(Nc1c(Cl)cccc1Cl)OCCOc1ccc(Br)cc1 the T/C [11] was 100 % of control, the T/C [3] was 103 % of control and the T/C [5] was 107 % of control.
For OC1(c2cccc(C(F)(F)F)c2)CCN(C2CC2c2ccccc2)CC1 (configuration not stated), the T/C [9] was 97 % of control and the T/C [10] was 95 % of control.
In the case of CCOC(=O)c1sc(=S)[nH]c1C, the T/C [5] was 89 % of control and the T/C [7] was 87 % of control.
CCC(=O)OCC(=O)[C@]1(O)Cc2c(O)c3c(c(O)c2[C@@H](OC2CC(N)C(O)C(C)O2)C1)C(=O)c1c(OC)cccc1C3=O (some centres not stated) was tested, and the T/C (endpoint: mean survival time, dose: 0.25 mg/kg/injection, schedule: Q01DX009 (ip), vehicle: saline) was 112 % of control, the T/C (endpoint: mean survival time, dose: 0.5 mg/kg/injection, schedule: Q01DX009 (ip), vehicle: saline) was 122 % of control and the T/C (endpoint: mean survival time, dose: 1.5 mg/kg/injection, schedule: Q04DX003 (ip), vehicle: saline sonified) was 166 % of control. For the same molecule, the T/C (endpoint: mean survival time, dose: 2.0 mg/kg/injection, schedule: Q01DX009 (ip), vehicle: saline) was 155 % of control, the T/C (endpoint: mean survival time, dose: 2.0 mg/kg/injection, schedule: Q04DX003 (ip), vehicle: saline with Tween-80) was 118 % of control and the T/C (endpoint: mean survival time, dose: 8.0 mg/kg/injection, schedule: Q01DX009 (ip), vehicle: saline) was 89 % of control.
With Cc1ccccc1N1OS(=O)(=O)CC1(C#N)c1ccccc1 (configuration not stated) the T/C (endpoint: mean survival time, dose: 100.0 mg/kg/injection, schedule: Q01DX001 (ip), vehicle: saline) was 106 % of control, the T/C [12] was 98 % of control and the T/C (endpoint: mean survival time, dose: 200.0 mg/kg/injection, schedule: Q01DX001 (ip), vehicle: saline) was 100 % of control. For the same molecule, the T/C [13] was 101 % of control, the T/C (endpoint: mean survival time, dose: 400.0 mg/kg/injection, schedule: Q01DX001 (ip), vehicle: saline) was 102 % of control and the T/C [14] was 96 % of control.
With O=C(Nc1ccc2c3c(ccc(NC(=O)c4ccccc4)c13)C=C2)c1ccccc1 the T/C [3] was 95 % of control and the T/C [7] was 89 % of control.
With C=CCN(CC=C)N=Nc1ccc(C(N)=O)cc1 the T/C (endpoint: mean survival time, dose: 19.75 mg/kg/injection, schedule: Q01DX009 (ip), vehicle: Klucel (hydroxypropylcellulose) (HPC)) was 102 % of control, the T/C (endpoint: mean survival time, dose: 39.5 mg/kg/injection, schedule: Q01DX009 (ip), vehicle: Klucel (hydroxypropylcellulose) (HPC)) was 102 % of control and the T/C (endpoint: mean survival time, dose: 79.0 mg/kg/injection, schedule: Q01DX009 (ip), vehicle: Klucel (hydroxypropylcellulose) (HPC)) was 114 % of control and 110 % of control. The T/C (endpoint: mean survival time, dose: 118.0 mg/kg/injection, schedule: Q01DX009 (ip), vehicle: Klucel (hydroxypropylcellulose) (HPC)) was 100 % of control and the T/C (endpoint: mean survival time, dose: 177.0 mg/kg/injection, schedule: Q01DX009 (ip), vehicle: Klucel (hydroxypropylcellulose) (HPC)) was 112 % of control.
O=C1OCCO1 was tested, and the T/C [3] was 92 % of control, the T/C [5] was 95 % of control and the T/C [7] was 97 % of control.
In the case of O=C1/C(=C\c2ccccc2)C2OCC=C3CN4CCC56c7ccccc7N1C5C2C3CC46 (configuration not stated), the T/C (endpoint: mean survival time, dose: 75.0 mg/kg/injection, schedule: Q01DX001 (ip), vehicle: other) was 95 % of control.
O=P(O)(CO)CO was tested, and the T/C (endpoint: mean survival time, dose: 50.0 mg/kg/injection, schedule: Q01DX009 (ip), vehicle: saline) was 95 % of control, the T/C (endpoint: mean survival time, dose: 100.0 mg/kg/injection, schedule: Q01DX009 (ip), vehicle: saline) was 101 % of control and the T/C (endpoint: mean survival time, dose: 200.0 mg/kg/injection, schedule: Q01DX009 (ip), vehicle: saline) was 95 % of control.
For COP(=O)(OC)OCC1OC(n2cnc3c(N)ncnc32)C(O)C1O (configuration not stated), the T/C (endpoint: median survival time, dose: 12.5 mg/kg/injection, schedule: Q01DX005 (ip), vehicle: water) was 96 % of control, the T/C (endpoint: median survival time, dose: 25.0 mg/kg/injection, schedule: Q01DX005 (ip), vehicle: water) was 96 % of control and the T/C (endpoint: median survival time, dose: 50.0 mg/kg/injection, schedule: Q01DX005 (ip), vehicle: water) was 102 % of control. The T/C (endpoint: median survival time, dose: 100.0 mg/kg/injection, schedule: Q01DX005 (ip), vehicle: water) was 103 % of control and the T/C (endpoint: median survival time, dose: 200.0 mg/kg/injection, schedule: Q01DX005 (ip), vehicle: water) was 100 % of control.
CSc1nc2cc(S(=O)(=O)O)ccc2s1 was tested, and the T/C (endpoint: mean survival time, dose: 100.0 mg/kg/injection, schedule: Q04DX003 (ip), vehicle: saline sonified) was 103 % of control, the T/C (endpoint: mean survival time, dose: 200.0 mg/kg/injection, schedule: Q04DX003 (ip), vehicle: saline sonified) was 97 % of control and the T/C (endpoint: mean survival time, dose: 400.0 mg/kg/injection, schedule: Q04DX003 (ip), vehicle: saline sonified) was 89 % of control.
CC1[N-]C(/C=N/O)NC(C)N1.CC1[N-]C(/C=N/O)NC(C)N1.[Br][Ni+2][Br] (configuration not stated) was tested, and the T/C (endpoint: mean survival time, dose: 5.0 mg/kg/injection, schedule: Q01DX001 (ip), vehicle: saline) was 105 % of control, the T/C (endpoint: mean survival time, dose: 10.0 mg/kg/injection, schedule: Q01DX001 (ip), vehicle: saline) was 103 % of control and the T/C (endpoint: mean survival time, dose: 20.0 mg/kg/injection, schedule: Q01DX001 (ip), vehicle: saline) was 105 % of control. For the same molecule, the T/C (endpoint: mean survival time, dose: 40.0 mg/kg/injection, schedule: Q01DX001 (ip), vehicle: saline) was 108 % of control, the T/C (endpoint: mean survival time, dose: 75.0 mg/kg/injection, schedule: Q01DX001 (ip), vehicle: saline) was 106 % of control and the T/C (endpoint: mean survival time, dose: 80.0 mg/kg/injection, schedule: Q01DX001 (ip), vehicle: saline) was 105 % of control.
In the case of COC(=O)C1C=Cc2ccccc21 (configuration not stated), the T/C [3] was 95 % of control, the T/C [5] was 95 % of control and the T/C [7] was 104 % of control.
With CCC(=N\N=C(N)N)/C(C)=N\N=C(N)N the T/C (endpoint: mean survival time, dose: 15.0 mg/kg/injection, schedule: Q01DX009 (ip), vehicle: saline) was 95 % of control and the T/C (endpoint: mean survival time, dose: 30.0 mg/kg/injection, schedule: Q01DX009 (ip), vehicle: saline) was 91 % of control.
For ClC12CCC(CC1)C2, the T/C [12] was 100 % of control, the T/C [13] was 94 % of control and the T/C [14] was 100 % of control.
